pIC50: −log10 of the molar value.
Assays:
SN12C = test: Cytotoxicity against human SN12C cells assessed as cell growth at 10^-4 M after 24 hrs by SRB assay; assay type: functional; details: read-out: Activity
NCI-H322M [1] = test: Cytotoxicity against human NCI-H322M cells assessed as cell growth at 10^-8 M after 24 hrs by SRB assay; assay type: functional; details: read-out: Activity
[2] = Cytotoxicity against human TK10 cells assessed as cell growth at 10^-6 M after 24 hrs by SRB assay; assay type: functional; details: TK-10, 24 h, read-out: Activity
SK-MEL-5 [3] = test: Cytotoxicity against human SK-MEL-5 cells assessed as cell growth at 10^-5 M after 24 hrs by SRB assay; assay type: functional; details: SK-MEL-5, 24 h, read-out: Activity
M14 = test: Cytotoxicity against human M14 cells assessed as cell growth at 10^-5 M after 24 hrs by SRB assay; assay type: functional; details: M14, 24 h, read-out: Activity
[4] = Cytotoxicity against human HOP92 cells assessed as cell growth at 10^-4 M after 24 hrs by SRB assay; assay type: functional; details: HOP-92, 24 h, read-out: Activity
NCI-H23 = test: Cytotoxicity against human NCI-H23 cells assessed as cell growth at 10^-7 M after 24 hrs by SRB assay; assay type: functional; details: NCI-H23, 24 h, read-out: Activity
[5] = Cytotoxicity against human SNB75 cells after 24 hrs by SRB assay; assay type: functional, cell-based; details: SNB-75, 24 h
MCF7 = test: Cytotoxicity against human MCF7 cells assessed as cell growth at 10^-4 M after 24 hrs by SRB assay; assay type: functional; details: MCF7, 24 h, read-out: Activity
EKVX = test: Cytotoxicity against human EKVX cells assessed as cell growth at 10^-5 M after 24 hrs by SRB assay; assay type: functional; details: read-out: Activity
[6] = Cytotoxicity against human Hs 578T cells after 24 hrs by SRB assay; assay type: functional
SK-MEL-5 [7] = test: Cytotoxicity against human SK-MEL-5 cells assessed as cell growth at 10^-6 M after 24 hrs by SRB assay; assay type: functional; details: SK-MEL-5, 24 h, read-out: Activity
[8] = Cytotoxicity against human PC3 cells after 24 hrs by SRB assay; assay type: functional; details: PC-3, 24 h
T47D [9] = test: Cytotoxicity against human T47D cells assessed as cell growth at 10^-4 M after 24 hrs by SRB assay; assay type: functional; details: read-out: Activity
[10] = Cytotoxicity against human DU145 cells assessed as cell growth at 10^-4 M after 24 hrs by SRB assay; assay type: functional; details: DU-145, 24 h, read-out: Activity
[11] = Cytotoxicity against human OVCAR5 cells assessed as cell growth at 10^-4 M after 24 hrs by SRB assay; assay type: functional; details: OVCAR-5, 24 h, read-out: Activity
Malme-3M = test: Cytotoxicity against human MALME-3M cells assessed as cell growth at 10^-4 M after 24 hrs by SRB assay; assay type: functional; details: read-out: Activity
[12] = Cytotoxicity against human RXF393 cells assessed as cell growth at 10^-6 M after 24 hrs by SRB assay; assay type: functional; details: RXF 393, 24 h, read-out: Activity
[13] = Cytotoxicity against human NCI-ADR-RES cells assessed as cell growth at 10^-4 M after 24 hrs by SRB assay; assay type: functional; details: read-out: Activity
SK-MEL-5 [14] = test: Cytotoxicity against human SK-MEL-5 cells assessed as cell growth at 10^-7 M after 24 hrs by SRB assay; assay type: functional; details: SK-MEL-5, 24 h, read-out: Activity
T47D [15] = test: Cytotoxicity against human T47D cells after 24 hrs by SRB assay; assay type: functional
U-251 = test: Cytotoxicity against human U251 cells assessed as cell growth at 10^-4 M after 24 hrs by SRB assay; assay type: functional; details: U-251, 24 h, read-out: Activity
[16] = Cytotoxicity against human LOXIMVI cells after 24 hrs by SRB assay; assay type: functional, cell-based; details: LOX IMVI
[17] = Cytotoxicity against human OVCAR3 cells after 24 hrs by SRB assay; assay type: functional; details: OVCAR-3, 24 h
KM12 = test: Cytotoxicity against human KM12 cells after 24 hrs by SRB assay; assay type: functional; details: KM12, 24 h
[18] = Cytotoxicity against human HL-60(TB) cells after 24 hrs by SRB assay; assay type: functional; details: HL-60, 24 h
NCI-H322M [19] = test: Cytotoxicity against human NCI-H322M cells assessed as cell growth at 10^-6 M after 24 hrs by SRB assay; assay type: functional; details: read-out: Activity
[20] = Cytotoxicity against human HCC2998 cells assessed as cell growth at 10^-6 M after 24 hrs by SRB assay; assay type: functional; details: HCC 2998, 24 h, read-out: Activity
[21] = Cytotoxicity against human SKOV3 cells assessed as cell growth at 10^-8 M after 24 hrs by SRB assay; assay type: functional; details: SK-OV-3, 24 h, read-out: Activity
[22] = Cytotoxicity against human HCT15 cells assessed as cell growth at 10^-4 M after 24 hrs by SRB assay; assay type: functional; details: HCT-15, 24 h, read-out: Activity
[23] = Cytotoxicity against human OVCAR5 cells assessed as cell growth at 10^-8 M after 24 hrs by SRB assay; assay type: functional; details: OVCAR-5, 24 h, read-out: Activity
NCI-H226 = test: Cytotoxicity against human NCI-H226 cells assessed as cell growth at 10^-4 M after 24 hrs by SRB assay; assay type: functional; details: NCI-H226, 24 h, read-out: Activity
[24] = Cytotoxicity against human OVCAR8 cells assessed as growth inhibition at 10 uM after 24 hrs by SRB assay; assay type: functional; details: OVCAR-8, 24 h, read-out: GI
[25] = Cytotoxicity against human SNB75 cells assessed as growth inhibition at 10 uM after 24 hrs by SRB assay; assay type: functional; details: SNB-75, 24 h, read-out: GI
[26] = read-out: LC50 (the source's name)
[27] = read-out: pLC50 (the source's name) (converted)

With `O=C(Nc1cc(-c2cccnc2)nc(NCCCN2CCOCC2)n1)c1cc(Br)cc(C(F)(F)F)c1` the growth at 100 µM (SN12C) was -85%, the growth at 0.01 µM (NCI-H322M [1]) was 98% and the growth at 1 µM [2] was 88%. For the same molecule, the growth at 10 µM (SK-MEL-5 [3]) was -98%, the growth at 10 µM (M14) was -80% and the growth at 100 µM [4] was -94%. It also gave a growth at 0.1 µM (NCI-H23) of 98%, a pIC50 [5] of 5.82 and a GI50 ([5]; read-out: GI50) of 1.52 µM. The CC50 [5, 26] was 8.46 µM, the TGI ([5]; read-out: TGI) was 3.59 µM and the GI50 ([5]; read-out: pGI50 (converted)) was 1.51 µM. The CC50 [5, 27] was 8.51 µM, the TGI ([5]; read-out: pTGI (converted)) was 3.55 µM and the growth at 100 µM (MCF7) was -75%. It also gave a growth at 10 µM (EKVX) of 17%, a GI50 ([6]; read-out: GI50) of 2.71 µM and a CC50 [6, 26] of over 100 µM. It also gave a TGI ([6]; read-out: TGI) of 8.51 µM, a GI50 ([6]; read-out: pGI50 (converted)) of 2.69 µM and a CC50 [6, 27] of 100 µM. For the same molecule, the TGI ([6]; read-out: pTGI (converted)) was 8.51 µM, the growth at 1 µM (SK-MEL-5 [7]) was 91% and the GI50 ([8]; read-out: GI50) was 4.03 µM. The CC50 [8, 26] was 42.7 µM, the TGI ([8]; read-out: TGI) was 15.7 µM and the GI50 ([8]; read-out: pGI50 (converted)) was 4.07 µM. For the same molecule, the CC50 [8, 27] was 42.7 µM, the TGI ([8]; read-out: pTGI (converted)) was 15.8 µM and the growth at 100 µM (T47D [9]) was -83%. It also gave a growth at 100 µM [10] of -100%, a growth at 100 µM [11] of -67% and a growth at 100 µM (Malme-3M) of -78%. The growth at 1 µM [12] was 92%, the growth at 100 µM [13] was -77% and the growth at 0.1 µM (SK-MEL-5 [14]) was 95%. It also gave a GI50 (T47D [15]; read-out: GI50) of 3.72 µM, a CC50 (T47D [15]; [26]) of 48.5 µM and a TGI (T47D [15]; read-out: TGI) of 16.1 µM. The GI50 (T47D [15]; read-out: pGI50 (converted)) was 3.72 µM, the CC50 (T47D [15]; [27]) was 49 µM and the TGI (T47D [15]; read-out: pTGI (converted)) was 16.2 µM. For the same molecule, the growth at 100 µM (U-251) was -93%, the pIC50 [16] was 5.79 and the GI50 ([16]; read-out: GI50) was 1.62 µM. The CC50 [16, 26] was 5.79 µM, the TGI ([16]; read-out: TGI) was 3.06 µM and the GI50 ([16]; read-out: pGI50 (converted)) was 1.62 µM. For the same molecule, the CC50 [16, 27] was 5.75 µM, the TGI ([16]; read-out: pTGI (converted)) was 3.09 µM and the GI50 ([17]; read-out: GI50) was 3.7 µM. The CC50 [17, 26] was 35.8 µM, the TGI ([17]; read-out: TGI) was 12.8 µM and the GI50 ([17]; read-out: pGI50 (converted)) was 3.72 µM. For the same molecule, the CC50 [17, 27] was 35.5 µM, the TGI ([17]; read-out: pTGI (converted)) was 12.9 µM and the GI50 (KM12; read-out: GI50) was 3.62 µM. It also gave a CC50 (KM12; [26]) of 41 µM, a TGI (KM12; read-out: TGI) of 13.6 µM and a GI50 (KM12; read-out: pGI50 (converted)) of 3.63 µM. For the same molecule, the CC50 (KM12; [27]) was 40.7 µM, the TGI (KM12; read-out: pTGI (converted)) was 13.5 µM and the GI50 ([18]; read-out: GI50) was 2.15 µM. It also gave a CC50 [18, 26] of 90.1 µM, a TGI ([18]; read-out: TGI) of 5.86 µM and a GI50 ([18]; read-out: pGI50 (converted)) of 2.14 µM. For the same molecule, the CC50 [18, 27] was 89.1 µM, the TGI ([18]; read-out: pTGI (converted)) was 5.89 µM and the growth at 1 µM (NCI-H322M [19]) was 91%. It also gave a growth at 1 µM [20] of 92%, a growth at 0.01 µM [21] of 97% and a growth at 100 µM [22] of -96%. The growth at 0.01 µM [23] was 92% and the growth at 100 µM (NCI-H226) was -89%.

In the case of `COCCCNc1nc(NC(=O)c2cc(OC)cc(OC)c2)cc(-c2cccnc2)n1`, the inhibition of growth at 10 µM [24] was 20.7% and the inhibition of growth at 10 µM [25] was 26.9%.

Reference: ChEMBL document CHEMBL3774345, “Synthesis of new diarylamides with pyrimidinyl pyridine scaffold and evaluation of their anti-proliferative effect on cancer cell lines” (Bioorg Med Chem Lett, 2016)
